# “And” between values parts separate entries of the source, which are not always exact repeats. Equal entries are not always repeated.
# How the values were obtained:
# [1] = Mechanical stressing (grinding, compression); type: physicochemical; details: ground with a mortar and pestle for 2 min
# Protocol: Mechanical stressing experiment: the following table describes three experiments involving mechanical stressing of Form A and/or Form B of free base Compound 1 by grinding with a mortar and pestle.
# Shear Sensitivity: Form K was compressed under 2000 psi for 1 minute and analyzed by XRPD.
# [2] = Solid state stability under accelerated storage conditions; type: physicochemical; details: for Chiral purity after storage: initial value 97.96 area %; for area % chemical purity after storage: initially 98.4%
# Protocol: Form A was not isolated directly as a wet cake but formed only upon drying of Form E in polymorphism studies. […] Small quantities of Form A were generated by dissolving a crude Compound 1 in MEK at high temperature, followed by fast cooling to room temperature, filtration and drying. DSC and TGA data were obtained for samples of Form A and following storage for 1 week at 60° C. and 60° C./75% RH. […] TGA analysis confirmed that this broad endotherm was most likely due to moisture uptake under the accelerated storage conditions. Most of the weight loss of 0.82% in this sample occurred in a single step at less than 75° C. By contrast, weigh loss was a two-step process at the initial time point. […] The residual solvent initially present in the sample was lost upon storage of the sample at 60° C. (0.13% weight loss between 25 to 150° C.).
# Form B could be obtained from a process involving methyl acetate. […] HPLC traces were taken of the samples of Form B and following storage for 2 week at 60° C. and 60° C./75% RH. […] Several small degradation products were seen to grow especially in the sample stored at 60° C. Chiral instability was also observed in the sample stored at 60° C./75% RH.
# Physical stability: Visually, all samples of Form K were white colored powder with no apparent change in color in the samples stored under accelerated conditions (40° C., 40° C./75% RH, 60° C., 60° C./75% RH and sample stored in light chamber in clear vials exposed to light and covered in aluminum foil) for 14 d relative to the sample stored refrigerated and under ambient conditions.
# Solid state chemical stability: HPLC analysis were performed on Form K samples stored under the accelerated stability conditions. […] Based on the HPLC analysis data, there is a measurable but small change in the chemical stability of Form K under the accelerated conditions of temperature, humidity and exposure to light over the 14 d period.
# Solid state chiral stability: Chiral stability of Form K samples stored under accelerated stability conditions was tested. There was ˜2.9% of the R-enantiomer (97.1 area % of the active S-isomer) in the initial sample. […]
# The chiral purity (area % of S-isomer) remained […] under the accelerated stability conditions.
# [3] = Dynamic vapor sorption / hygroscopicity; type: physicochemical; details: for hygroscopicity: DVS, class by mass gain at 85% r.h.; for DVS mass increase: relative humidity from about 5% to about 95%
# Protocol: Projekt Messtechnik (now ProUmid) SPS11-100n. The sample was placed on an aluminum holder on top of a microbalance and allowed to equilibrate at 50% r.h. before starting one of the following pre-defined humidity programs (1 cycle): • hold 2 h at 50% r.h., • decrease humidity −5% r.h. h^−1 for 10 h (i.e., from 50% r.h. to 0% r.h.), • hold 5 h at […]., • increase humidity +5% r.h. h^−1 for 19 h (i.e., from 0% r.h. to 95% r.h.), • hold 5 h at 95% r.h., • decrease humidity −5% r.h. h^−1 for 9 h (i.e., from 95% r.h. to 50% r.h.), • hold 2 h at 50% r.h. or • hold 2 h at 50% r.h., • increase humidity +5% r.h. h^−1 for 9 h (i.e., from 50% r.h. to 95% r.h.), • hold 5 h at 95% r.h., • decrease humidity −5% r.h. h^−1 for 19 h (i.e., from 95% r.h. to 0% r.h.), • hold 5 h at 0% r.h., • increase humidity +5% r.h. h^−1 for 10 h (i.e., from 0% r.h. to 50% r.h.), • hold 2 h at 50% r.h.
# The hygroscopicity was classified based on the mass gain at 85% r.h. relative to the initial mass as follows: deliquescent (sufficient water adsorbed to form a liquid), very hygroscopic (mass increase of […]), hygroscopic (mass increase of <15% but ≥2%), slightly hygroscopic (mass increase of <2% but ≥0.2%), or non-hygroscopic (mass increase of <0.2%).
# [4] = Solubility of polymorphic forms in physiologically relevant media and final pH; type: physicochemical
# Description: Solubility data of the several polymorphic forms of Compound 1 in physiologically relevant media and the final pH of these solutions are summarized in the following tables.
# [5] = Thermal treatment / racemization on heating; type: physicochemical
# Protocol: Thermal treatment of solid forms: the following table summarizes two experiments carried out using solvent-free thermal treatment of forms of Compound 1. The goal of these experiments was to determine whether the endotherm at 225° C. observed in many DSC experiments corresponded to the melting of the racemate of Compound 1 or whether it was a polymorphic form of Compound 1. Two experiments involved generation of different solid forms of Compound 1, the amorphous form and Form E. The resulting products were subsequently heated to temperatures where exothermic events had been observed in DSC thermograms. Both experiments confirmed that the racemate was generated by heating.
# Racemization of Compound 1 during the DSC analysis was confirmed by heating the samples to various temperatures and analyzing these samples by a chiral HPLC method as well as by comparison of the melting point with a pure sample of the racemate of Compound 1. Upon heating the sample to 160° C., the chiral purity was essentially unchanged (96.1 area % at 160° C. vs. 97.1% initial). This supports the interpretation of the sharp endotherm seen in the DSC thermogram at about 152.6° C. as the melt of the enantiomer. Between 160-218° C. a gradual conversion of the enantiomer to the racemate occurs along with the recrystallization of the racemate. This explains the unsteady baseline over this temperature range and the small broad endotherm observed at about 197.1° C. […] This melting point matches the peak melting point (about 225.6° C.) of the pure racemate of Compound 1.
# [6] = Competitive slurry and slurry stability experiments; type: physicochemical; details: aqueous slurry at room temperature, within 24 hr
# Protocol: Form B was obtained at room temperature while form C was obtained at 45° C. in acetone alone.
# The HBr salt was largely insoluble in various buffers when 1 mg/mL slurries were prepared and the mother liquor concentration determined (by HPLC): <0.05 mg/mL in all buffers tested.
# [7] = tested on: non-selective α1 adrenergic receptor; assay: α1 adrenergic receptor binding at 10 μM ([3H]prazosin); details: 0.25 nM [3H]prazosin, rat cerebral cortex membranes
# Protocol: (§1) α1 Adrenergic and Dopamine D2 Receptors. Methods: Binding and functional assays for α1 adrenergic and dopamine D2 receptors were performed by Eurofins Cerep according to their methods.
# α1 Adrenergic Receptor. Binding at 10 μM. The binding assay evaluated the affinity of test article for the non-selective α1 adrenergic receptor in rat cerebral cortex. Membrane homogenates of cerebral cortex were incubated in duplicate for 60 minutes at room temperature with 0.25 nM [^3H]prazosin in the absence or presence of test articles at 10 μM. After the incubation period, samples were filtered through glass fiber filters, the filters dried and then counted for radioactivity using a scintillation counter. Results are expressed as mean percent inhibition of control radioligand binding.
# dopamine D2S receptor = molecular target: T1, dopamine D2S receptor (Homo sapiens, UniProt P14416); assay: Dopamine D2S receptor binding at 10 μM; details: transfected HEK-293 cell membranes, read-out: Dopamine D2S % Inh. (@10 μM)
# T1 construct: host or cells: HEK-293
# T1 sequence (P14416 1-414 isoform P14416-2): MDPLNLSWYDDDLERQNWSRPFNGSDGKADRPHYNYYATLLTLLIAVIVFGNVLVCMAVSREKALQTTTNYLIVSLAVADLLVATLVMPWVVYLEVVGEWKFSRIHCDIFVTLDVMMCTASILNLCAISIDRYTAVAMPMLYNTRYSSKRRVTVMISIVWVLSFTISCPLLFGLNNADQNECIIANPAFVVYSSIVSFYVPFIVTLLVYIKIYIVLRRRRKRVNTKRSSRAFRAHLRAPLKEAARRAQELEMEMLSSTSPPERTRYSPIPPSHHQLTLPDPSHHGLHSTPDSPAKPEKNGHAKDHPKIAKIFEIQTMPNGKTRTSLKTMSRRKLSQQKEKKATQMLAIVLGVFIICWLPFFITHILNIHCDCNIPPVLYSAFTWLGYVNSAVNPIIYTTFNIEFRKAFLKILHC
# Protocol: as §1
# Dopamine D2 Receptor. Binding at 10 μM. The binding assay evaluated the affinity of test articles for the dopamine D2 receptor in transfected human embryonic kidney (HEK)-293 cells. For determining the binding in the D2S receptor assay, test article was incubated with 0.3 nM [^3H] methylspiperone or 1 nM [^3H] 7-hydroxy-2-N,N-dipropylaminotetralin (7-OH-DPAT). [^3H] Methylspiperone at 0.3 nM also was used as control ligand in the D2L binding assay. Cell membrane homogenates were incubated in duplicate at room temperature for 60 minutes with ligand in the absence or presence of test articles at 10 μM. After the incubation period, samples were filtered through glass fiber filters, the filters dried and then counted for radioactivity using a scintillation counter. Results are expressed as mean percent inhibition of control radioligand binding.
smiles,measurement,setting,value
N#Cc1ccc(N2CCN(Cc3ccc(COc4cccc5c4CN([C@H]4CCC(=O)NC4=O)C5=O)cc3)CC2)c(F)c1 [Form A of a free base of Compound 1],PXRD result after mechanical treatment,[1]; listed as Form A,no change in polymorphic form;
same,DSC trace after storage,[2]; 1 week at 60° C.,quite similar to the initial condition
same,"physical form after storage (DSC, TGA)",[2]; 1 week at 60° C./75% RH,changes in physical form were observed
same,hygroscopicity,[3]; listed as Form A,slightly hygroscopic (slightly hygroscopic (mass increase of <2% but ≥0.2%))
same,DVS mass increase,[3]; listed as Form A,about 2.4%
same,Solubility,"[4]; FeSSiF, listed as Form A",86 µg/mL
same,Solubility,"[4]; SGF with pepsin, listed as Form A",429 µg/mL
same,Solubility,"[4]; pH 1 buffer HC1/NaC1, listed as Form A",88 µg/mL
same,Solubility,"[4]; pH 3 buffer (phosphate), listed as Form A",280 µg/mL
same,Solubility,"[4]; pH 4 buffer (acetate), listed as Form A",159 µg/mL
same,Solubility,"[4]; pH 5 buffer (acetate), listed as Form A",8 µg/mL
same,Final pH,"[4]; solubility sample in FaSSIF, listed as Form A",6.44
same,Final pH,"[4]; solubility sample in FeSSiF, listed as Form A",5.05
same,Final pH,"[4]; solubility sample in SGF with pepsin, listed as Form A",1.34
same,Final pH,"[4]; solubility sample in Water, listed as Form A",6.77
same,Final pH,"[4]; solubility sample in pH 1 buffer HC1/NaC1, listed as Form A",1.14
same,Final pH,"[4]; solubility sample in pH 3 buffer (phosphate), listed as Form A",3.70
same,Final pH,"[4]; solubility sample in pH 4 buffer (acetate), listed as Form A",4.11
same,Final pH,"[4]; solubility sample in pH 5 buffer (acetate), listed as Form A",5.03
N#Cc1ccc(N2CCN(Cc3ccc(COc4cccc5c4CN([C@H]4CCC(=O)NC4=O)C5=O)cc3)CC2)c(F)c1 [Form E of a free base of Compound 1],solid form after DVS cycle,"[3]; after the DVS humidity cycle, listed as Form E",primarily amorphous material
same,PXRD result after thermal treatment,"[5]; N2 flow, 200° C. held for several minutes, cooled quickly",racemate
N#Cc1ccc(N2CCN(Cc3ccc(COc4cccc5c4CN([C@H]4CCC(=O)NC4=O)C5=O)cc3)CC2)c(F)c1 [Form B of a free base of Compound 1],PXRD result after mechanical treatment,[1]; listed as Form B,no change in polymorphic form
same,Chiral purity after storage,[2]; 2 week at 60° C./75% RH,96.54 area %
same,area % chemical purity after storage,[2]; 2 week at 60° C./75% RH,97.92%
same,Chiral purity after storage,[2]; 2 week at 60° C.,remained unchanged
same,area % chemical purity after storage,[2]; 2 week at 60° C.,97.71%
same,colour after storage,"[2]; stored at 60° C., initially white to light brown",Color change was observed
same,hygroscopicity,[3]; listed as Form B,slightly hygroscopic (slightly hygroscopic (mass increase of <2% but ≥0.2%))
same,DVS mass increase,[3]; listed as Form B,about 3.1%
same,Solubility,"[4]; FeSSiF, listed as Form B",77 µg/mL
same,Solubility,"[4]; SGF with pepsin, listed as Form B",406 µg/mL
same,Solubility,"[4]; pH 1 buffer HC1/NaC1, listed as Form B",85 µg/mL
same,Solubility,"[4]; pH 3 buffer (phosphate), listed as Form B",125 µg/mL
same,Solubility,"[4]; pH 4 buffer (acetate), listed as Form B",115 µg/mL
same,Solubility,"[4]; pH 5 buffer (acetate), listed as Form B",7 µg/mL
same,Final pH,"[4]; solubility sample in FaSSIF, listed as Form B",6.43
same,Final pH,"[4]; solubility sample in FeSSiF, listed as Form B",5.03
same,Final pH,"[4]; solubility sample in SGF with pepsin, listed as Form B",1.29
same,Final pH,"[4]; solubility sample in Water, listed as Form B",6.46
same,Final pH,"[4]; solubility sample in pH 1 buffer HC1/NaC1, listed as Form B",1.09
same,Final pH,"[4]; solubility sample in pH 3 buffer (phosphate), listed as Form B",4.05
same,Final pH,"[4]; solubility sample in pH 4 buffer (acetate), listed as Form B",4.11
same,Final pH,"[4]; solubility sample in pH 5 buffer (acetate), listed as Form B",5.05
same,competitive slurry with Form C,[6],rapidly converted to Form C
"N#Cc1ccc(N2CCN(Cc3ccc(COc4cccc5c4CN([C@H]4CCC(=O)NC4=O)C5=O)cc3)CC2)c(F)c1 [Compound 1, (S)-4-(4-(4-(((2-(2,6-dioxopiperidin-3-yl)-1-oxoisoindolin-4-yl)oxy)methyl)benzyl)piperazin-1-yl)-3-fluorobenzonitrile]",racemization on heating,"[5]; DSC heating, chiral HPLC, gradual between 160-218° C.",almost complete by 218 °C
same,chiral purity upon heating,"[5]; heated to 160° C., 97.1% initial",96.1 area %
same,Adrenergic α1 % Inh. (@10 μM),[7],67% and 62%
same,inhibition at 10 µM,dopamine D2S receptor,55%
"O=C1CCC(N2Cc3c(OCc4ccc(CN5CCN(c6ccc(F)cc6F)CC5)cc4)cccc3C2=O)C(=O)N1 (racemic) [Compound A, 3-(4-((4-((4-(2,4-difluorophenyl)piperazin-1-yl)methyl)benzyl)oxy)-1-oxoisoindolin-2-yl)piperidine-2,6-dione, reference compound]",Adrenergic α1 % Inh. (@10 μM),[7],102%
